The values that follow come from a melting point compilation (Tetko et al.; mined from patent text by program, amines drawn as free bases though some values may be those of a salt).

Molecules are shown by their SMILES.

Regarding `CC(C)[C@H](NC(=O)N(C)Cc1cscn1)C(=O)N[C@@H](Cc1ccccc1)C[C@H](O)[C@H](Cc1ccccc1)NC(=O)[C@@H](NC(=O)N(C)Cc1cscn1)C(C)C`, the melting point (usually the temperature of the solid-liquid transition) is 154 to 156 °C.

As to `COc1ccc(-c2cc(C(=O)Nc3ccc(CCN(C)Cc4ccc(OC)c(OC)c4)cc3)c3ccccc3n2)cc1`, the melting point stood at 114 °C.

For the compound `O=C(O)c1ccccc1C(=O)OC1CCN(c2cc(-c3ccccc3)nc(-c3ccccc3)n2)CC1`, the melting point is 96 to 98 °C.

Regarding `Ic1ccc(OC23CC4CC(CC(C4)C2)C3)cc1`, the melting point lay in the range of 115 to 118 °C.

Turning to `O=C1c2cnc3[nH]ncc3c2C(=O)N1CCc1ccccc1`, the melting point was in the range of 237 to 239 °C.

On to `CCC(CC)Oc1cc(C)nc2c1n(C)c(=O)n2-c1c(C)cc(C)cc1C`, for which the melting point lay within 151 to 153 °C.

For the compound `O=C(Cc1ccnc(Br)c1)c1ccccn1`, the melting point was 111 °C.

Regarding `O=C(Nc1cccc2c(CO)ccnc12)c1c(Cl)cccc1Cl`, the melting point lay within 235 to 239 °C.

The compound `CNC(=O)Nc1ccc2c(c1)C(CN1CCC(c3ccc(F)cc3)CC1)CC2` (configuration not stated) came in with a melting point of 170 to 173 °C.

For the compound `CC1(CNC(=O)C2CCCCC2)OCCc2c1[nH]c1ccccc21` (configuration not stated), the melting point was 174 to 175 °C.

`CCOC(=O)CCNC(=O)C(=Cc1ccccc1)CSC(=O)c1ccccc1` registered a melting point of less than 50 °C.

Regarding `Nc1sc2c(c1C(=O)c1ccc(OCc3ccccc3)cc1)CCN(C(=O)OCc1ccccc1)C2`, the melting point is 151 to 152 °C.

For the compound `Cc1ccc(CN(O)C(N)=O)s1`, the melting point was 134 °C.

`CCCn1c(=O)c2[nH]c(-c3cc(C)n(CC(=O)Nc4cccc(Cl)c4)n3)nc2n(CCC)c1=O` had a melting point of 304 to 307 °C.

For the compound `CNC(=O)c1ccccc1Nc1nc(Nc2cc3c(cc2OC)N(C)C(=O)OCC3)ncc1Br`, the melting point was in the range of 227 to 228 °C.

Compound `CC(=O)OCCCn1cc(C2=C(c3ccccc3[N+](=O)[O-])C(=O)NC2=O)c2ccccc21` gave a melting point of 77 to 78 °C.

As to `O=C(c1cccc2[nH]ccc12)N1CCOCC1`, the melting point was in the range of 127 to 129 °C.

On to `COc1ccc(/C(C)=C/C(=O)O)cc1OC`, for which the melting point is 73 to 74 °C.

Compound `Cc1oc(-c2ccco2)nc1COc1ccc(COc2nn(Cc3ccccc3)cc2C(=O)O)cc1` came in with a melting point of 170 to 171 °C.

Compound `COc1ccc(C)cc1NC(=O)Nc1ccc(N2CCN(C(=O)Nc3cc(OCCO)ccc3Cl)CC2)cc1` gave a melting point of 121 to 124 °C.

`O=C(O)c1cc2nc(-c3ccccc3)nn2cc1F` registered a melting point greater than 250 °C.

Take `O=S(=O)(Nc1cccnc1Nc1ccccc1)c1ccc(O)cc1`: the melting point lay within 226 to 228 °C.

Consider `O=C1CCn2c(-c3ccccc3)nc3c(Cl)ccc1c32`, for which the melting point was in the range of 206 to 209 °C.

Compound `CCOC(=O)C(C)Sc1ccc(-c2nc(=O)c3ccccc3s2)cn1` (configuration not stated) came in with a melting point of 116 °C.

`CON1C(=O)[C@H](Cc2c[nH]c3ccccc23)NC(=O)[C@@H]1CC(C)C`: the melting point was in the range of 100 to 101 °C.

`CC(C)(C)C(=O)C=Cc1ccc(Cl)cc1`: the melting point lay within 83 to 84 °C.

The compound `CC(C)(C)OC(=O)N1CCn2c(c(C(N)=O)c(C#N)c2C2CC2)C1` returned a melting point of 221 to 222 °C.

`CCc1cccc(N2C(c3ccc(Cl)cc3)=NS(=O)(=O)c3cnccc32)c1` showed a melting point of 227 to 229 °C.

`COc1ccc2c(c1)[C@](C)(NC(=O)c1cc3ccccc3[nH]1)C(=O)N2c1ccc(F)cc1` returned a melting point of 287 to 288 °C.

`NS(=O)(=O)Oc1ccc2c(c1)S(=O)(=O)N=C2C1CCCCC1` yielded a melting point of 170 °C.

In the case of `Cc1ccc2c(c1)cc(CCCC(=O)O)n2S(=O)(=O)c1ccc2ncsc2c1`, the melting point came to 128 °C.

The compound `COC(=O)c1ccc(C(=O)NS(=O)(=O)c2ccc(C(=O)NCCCc3ccccc3)cc2)cn1` registered a melting point of 240 to 242 °C.

In the case of `CSc1nc(N2CCc3ccccc3CC2)c(C#N)c(=O)[nH]1`, the melting point is greater than 250 °C.

`CN1C2CCCC1CC(NC(=O)c1cccc3nc(-c4ccc(Cl)cc4)oc13)C2` (configuration not stated) came in with a melting point of 193 to 196 °C.

`Cc1cc(-n2cnn(Cc3ccc(F)cc3)c2=O)sc1C(=O)NCc1cccnc1` had a melting point of 180 to 182 °C.

As to `CCCOc1cccc(OCCC)c1C(=O)Nc1cc(C(C)(C)C)no1`, the melting point lay in the range of 85 to 87 °C.

Turning to `COC(=O)CCC(C)C(=O)O` (configuration not stated), the melting point was in the range of 97 to 99 °C.

Compound `CCCCCc1ccc(Br)nn1` showed a melting point of 31 to 32 °C.

Compound `COC(=O)Nc1ccc(O)c(Cl)c1` came in with a melting point of 96 to 98 °C.

For `CCCCCc1cnc(-c2ccc(SC)cc2)nc1`, the melting point was 52 °C.

`N#CC(CCCOc1ccccc1)(Cn1cncn1)c1ccccc1` (configuration not stated): the melting point lay in the range of 85 to 86 °C.

In turn, `Cc1cccc(C(C)(C)C)c1-n1sc(=O)n(Cc2ccccc2)c1=O` registered a melting point of 89.8 °C.

`CC(C)(C)OC(=O)Nc1ccc(C#Cc2ccccc2F)cc1[N+](=O)[O-]` showed a melting point of 140 to 142 °C.

In the case of `O=C(O)CCCOc1ccc(CSc2[nH]nc(NS(=O)(=O)c3c(Cl)cccc3Cl)c2-c2ccccn2)cc1`, the melting point is 183 to 185 °C.

In turn, `CN(CC(=O)O)C(=O)CC1=C(n2nc(-c3c(-c4ccccc4)nn4ccccc34)ccc2=O)CCCC1` had a melting point of 135 to 138 °C.

`CCOC(=O)CNc1c(C(C)C)cc(C(O)(C(F)(F)F)C(F)(F)F)cc1C(C)C`: the melting point fell in the range of 72 to 73 °C.

`N#Cc1ccccc1Sc1ccc([N+](=O)[O-])cc1` showed a melting point of 151 to 153 °C.

Consider `O=[N+]([O-])c1ccc(NCCNS(=O)(=O)c2ccccc2)cc1`, for which the melting point was found to be 171 °C.

As to `COC1(c2cc(F)cc(Sc3ccc(C(=NO)C(F)(F)F)cc3)c2)CCOCC1`, the melting point is 131 to 133 °C.

On to `COc1ccc(-c2nc(S(=O)c3ccccc3)[nH]c2-c2ccc(OC)cc2)cc1` (configuration not stated), for which the melting point lay within 188 to 190 °C.

As for `C#CCCCC(=O)c1nc(C(C)(C)C)c(O)c(C(C)(C)C)n1`, the melting point lay within 64 to 66 °C.

Regarding `CC(C)n1nc(-c2c(-c3ccccc3)oc(=O)n2C(C)C(=O)O)ccc1=O` (configuration not stated), the melting point was in the range of 173 to 175 °C.

On to `CC(=O)Nc1cccc(C=CC(=O)C2C(=O)OC(=O)C(C(C)=O)=C2O)c1` (configuration not stated), for which the melting point fell in the range of 222 to 224 °C.

Compound `COC(=O)C(=O)c1ccc(OCC(=O)c2ccc3ccccc3c2)cc1` showed a melting point of 120 to 121 °C.

Regarding `CN1CCN(CCCCCC(=O)N2c3ccccc3C(=O)Nc3cccnc32)CC1`, the melting point is 179 to 181 °C.

`C=CC1C(=O)N(c2ccc(OC)cc2)C1C(=O)OCC` (configuration not stated) returned a melting point of 70 to 72 °C.

`CCCCC(Cn1cncn1)(C(=O)O)c1ccc(Cl)cc1` (configuration not stated) had a melting point of 169 to 171 °C.

`COC(=O)c1ccc(S(C)(=O)=O)c(C(=O)NCC(C)CO)c1Cl` (configuration not stated) displayed a melting point of 70 to 72 °C.

`Nc1coc2ccc(Cl)cc2c1=O` yielded a melting point of 184 to 186 °C.

The compound `COc1ccc(-c2cc(C)cn2-c2ccc(S(N)(=O)=O)cc2)cc1Cl` gave a melting point of 160 to 163 °C.

Compound `C#CCC(CC#C)(C(=O)NO)S(=O)(=O)c1ccc(OC)cc1` showed a melting point of 156 °C.

`Cc1c(C(=O)O)sc2c(Br)cccc12` yielded a melting point of 311 to 312 °C.

On to `CC(=O)Nc1ccc(C=O)cc1F`, for which the melting point came to 133 °C.

`O=C(CN1C(=O)C(NC(=O)OCc2ccccc2)N=C(c2ccccc2)c2ccccc21)NCc1ccccc1` (configuration not stated) showed a melting point of 204 to 205 °C.

For `Cc1ccsc1-n1ncc(-c2ccc(S(C)(=O)=O)cc2)c(-c2ccc(F)cc2)c1=O`, the melting point lay within 215 to 217 °C.

For the compound `N#CN1CCC2(CC1)CN(c1ccccc1[N+](=O)[O-])c1cc(Cl)ccc12`, the melting point is 163 to 165 °C.

`CCOC(=O)c1ccc(-c2cc3c(NCc4cccc(Cl)c4)ncnc3[nH]2)cc1` registered a melting point of 305 to 306 °C.

For `Cn1ncc2[nH]c3ccc(Cc4ccccc4Cl)cc3c(=O)c21`, the melting point is 278 °C.

In turn, `Cc1ccc(CN(Cc2ccc(C)cc2)c2nccc(-c3ccc(-c4ccc(N(c5ccccc5)c5ccccc5)cc4)cc3)n2)cc1` gave a melting point of 153 to 154 °C.

In turn, `COC(=O)CC(CCc1ccc(C)cc1)NC(C)=O` (configuration not stated) came in with a melting point of 50 to 51 °C.

With `CC(OC=O)C1C(=O)N([Si](C)(C)C(C)(C)C)C1CC(=O)O` (mixture of isomers), the melting point is 109 to 110 °C.

Consider `O=c1oc(-c2ccc(OCc3ccccc3)cc2)cc(O)c1SCCc1ccccc1`, for which the melting point lay within 139 to 142 °C.

For the compound `NC(=O)N(O)CCOCc1cccs1`, the melting point was 91 to 92 °C.

Consider `Cc1c(C(=O)C(N)=O)c2c(OCC(=O)O)cc3c(c2n1Cc1ccccc1)CCC3`, for which the melting point was 255 to 257 °C.

In turn, `O=C(NCCc1c[nH]c2ccc(C(=O)Nc3ccccc3)cc12)OCc1ccccc1` came in with a melting point of 136 to 138 °C.

Take `O=S(=O)(CS(=O)(=O)/C(F)=C(/F)c1c(F)c(F)c(F)c(F)c1F)/C(F)=C(/F)c1c(F)c(F)c(F)c(F)c1F`: the melting point lay in the range of 193 to 195 °C.

`O=c1c2cc(Cl)c(Cl)cc2nc2n1CS(=O)(=O)N2`: the melting point was greater than 300 °C.

As for `CCOC1=CC(=O)C(C(=O)OC)C(c2ccc(C)cc2)C1` (configuration not stated), the melting point was 124 to 127 °C.

With `CONc1cc(Cl)nc(S(C)(=O)=O)n1`, the melting point worked out at 135 °C.

With `O=S1(=O)c2ccccc2Oc2cc(OCC(F)(F)F)ccc21`, the melting point fell in the range of 165 to 166 °C.

In turn, `CCOc1cccnc1CSCCNC(=C[N+](=O)[O-])SC` came in with a melting point of 126 to 127 °C.

Compound `COc1ccc2c(CC3CCN(CCc4c(C)sc5c4CCN(C(C)=O)C5)CC3)noc2c1OC` came in with a melting point of 197 to 200 °C.

Compound `C=CC(=O)NC(C(=O)OCC)C(=O)OCC` yielded a melting point of 105 to 106 °C.

`O=C(O)c1ccccc1-n1c(-c2ccccc2)cc2c1-c1ccccc1CC2` returned a melting point of 170 to 185 °C.

`COc1cc(-c2ccc(C(=N)NO)cc2)cc(-c2nc3cc(C(=N)NO)ccc3[nH]2)c1O` displayed a melting point of 319 to 321 °C.

`CCOC(=O)c1cc2cc(OCCN(C)C)ccc2[nH]1`: the melting point turned out to be 110 °C.

`COc1cccc(OC)c1C(=O)NC(=O)Nc1ccc(Sc2ccc(Cl)cc2)nc1`: the melting point fell in the range of 172 to 174 °C.
